Source: PMC3945162 (Psychopharmacology, 2013)
Several values for one entry are separate records, joined by “and”; a condition that tells them apart may be missing. Equal values may be shown once. Read-outs that look alike come from different tables or passages of the source.

What was measured:
5-HT2A = conditions: ref McLean et al. 2006; cited from earlier work
human 5-HT2A receptor [1] = molecular target: T1, human 5-HT2A receptor (Homo sapiens, UniProt P28223); assay: [3H]AA release from HEK-5-HT2A cells; format: cell-based
T1 sequence (P28223 whole entry): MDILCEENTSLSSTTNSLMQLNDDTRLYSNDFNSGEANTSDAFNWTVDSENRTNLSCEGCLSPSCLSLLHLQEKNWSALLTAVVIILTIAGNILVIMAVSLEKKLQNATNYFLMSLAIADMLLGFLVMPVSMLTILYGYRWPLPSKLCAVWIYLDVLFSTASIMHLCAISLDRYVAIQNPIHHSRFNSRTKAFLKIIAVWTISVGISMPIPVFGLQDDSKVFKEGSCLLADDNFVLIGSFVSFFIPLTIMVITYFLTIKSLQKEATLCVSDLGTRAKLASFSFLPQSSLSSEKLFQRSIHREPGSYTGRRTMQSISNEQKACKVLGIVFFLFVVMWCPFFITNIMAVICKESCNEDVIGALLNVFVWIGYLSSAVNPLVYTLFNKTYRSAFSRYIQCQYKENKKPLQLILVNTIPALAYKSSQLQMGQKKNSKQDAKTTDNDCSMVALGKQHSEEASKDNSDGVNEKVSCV

hDAT [2] = molecular target: T2, hDAT (Homo sapiens, UniProt Q01959); assay: [3H]Dopamine release, HEK-hDAT cells; format: cell-based; conditions: HEK-hDAT cells
T2 sequence (Q01959 whole entry): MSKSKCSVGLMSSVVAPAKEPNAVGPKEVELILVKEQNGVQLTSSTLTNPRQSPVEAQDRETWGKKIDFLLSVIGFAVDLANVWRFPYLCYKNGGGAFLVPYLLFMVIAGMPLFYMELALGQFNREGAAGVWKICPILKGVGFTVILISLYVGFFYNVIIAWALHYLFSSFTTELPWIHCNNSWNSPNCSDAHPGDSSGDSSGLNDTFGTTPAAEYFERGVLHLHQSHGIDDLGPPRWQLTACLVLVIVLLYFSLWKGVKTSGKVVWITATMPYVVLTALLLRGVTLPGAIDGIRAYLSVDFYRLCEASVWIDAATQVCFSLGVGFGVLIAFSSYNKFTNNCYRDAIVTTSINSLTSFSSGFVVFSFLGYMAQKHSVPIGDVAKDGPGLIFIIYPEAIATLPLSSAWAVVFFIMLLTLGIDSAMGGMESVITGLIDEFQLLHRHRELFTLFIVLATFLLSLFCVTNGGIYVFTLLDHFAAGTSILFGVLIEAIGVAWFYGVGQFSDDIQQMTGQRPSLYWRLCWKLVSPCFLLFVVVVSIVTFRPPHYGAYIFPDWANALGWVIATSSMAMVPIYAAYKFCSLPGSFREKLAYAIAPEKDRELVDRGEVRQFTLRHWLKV

[3] = tested on: rats trained to discriminate LSD (0.1 mg/kg) from saline; format: in vivo, rat; conditions: LSD-trained rats; for Maximum %DAR (drug-appropriate responding): i.p., at dose of maximum DAR
[4] = tested on: rats trained to discriminate DOM (0.5 mg/kg) from saline; format: in vivo, rat; conditions: for Maximum %DAR (drug-appropriate responding): i.p., at dose of maximum DAR
human 5-HT2A receptor [5] = molecular target: T1, human 5-HT2A receptor; assay: IP-1 formation, HEK-5-HT2A cells; format: cell-based
Male Swiss–Webster mice = assay: Locomotor activity; format: in vivo, mouse; conditions: mice, i.p.
hSERT [6] = molecular target: T3, hSERT (Homo sapiens, UniProt P31645); assay: [3H]Serotonin uptake, HEK-hSERT cells; format: cell-based
T3 sequence (P31645 whole entry): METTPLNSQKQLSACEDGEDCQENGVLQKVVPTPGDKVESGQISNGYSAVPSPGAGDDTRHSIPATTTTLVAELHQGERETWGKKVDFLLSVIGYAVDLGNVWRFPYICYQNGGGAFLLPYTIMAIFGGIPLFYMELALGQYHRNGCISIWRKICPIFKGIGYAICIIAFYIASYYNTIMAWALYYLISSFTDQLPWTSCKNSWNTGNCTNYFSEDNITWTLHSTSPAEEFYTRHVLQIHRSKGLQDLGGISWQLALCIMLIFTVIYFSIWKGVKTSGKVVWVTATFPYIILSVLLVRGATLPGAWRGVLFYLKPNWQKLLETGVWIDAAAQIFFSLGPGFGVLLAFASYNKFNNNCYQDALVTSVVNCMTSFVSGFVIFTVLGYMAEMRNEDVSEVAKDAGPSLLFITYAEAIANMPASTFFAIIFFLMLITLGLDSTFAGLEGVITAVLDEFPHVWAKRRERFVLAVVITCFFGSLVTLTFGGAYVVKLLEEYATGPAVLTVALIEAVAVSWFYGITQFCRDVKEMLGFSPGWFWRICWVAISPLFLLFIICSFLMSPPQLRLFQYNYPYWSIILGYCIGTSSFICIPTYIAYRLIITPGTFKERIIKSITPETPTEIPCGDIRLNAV

[7] = tested on: rats trained to discriminate METH (1 mg/kg) from saline; format: in vivo, rat; conditions: METH-trained rats
[8] = tested on: rats trained to discriminate MDMA (1.5 mg/kg) from saline; format: in vivo, rat; conditions: MDMA-trained rats
hDAT [9] = molecular target: T2, hDAT; assay: [125I]RTI-55 binding, HEK-hDAT cells
human 5-HT2C receptor [10] = molecular target: T4, human 5-HT2C receptor (Homo sapiens, UniProt P28335); assay: biochemical; format: binding
T4 sequence (P28335 33-458): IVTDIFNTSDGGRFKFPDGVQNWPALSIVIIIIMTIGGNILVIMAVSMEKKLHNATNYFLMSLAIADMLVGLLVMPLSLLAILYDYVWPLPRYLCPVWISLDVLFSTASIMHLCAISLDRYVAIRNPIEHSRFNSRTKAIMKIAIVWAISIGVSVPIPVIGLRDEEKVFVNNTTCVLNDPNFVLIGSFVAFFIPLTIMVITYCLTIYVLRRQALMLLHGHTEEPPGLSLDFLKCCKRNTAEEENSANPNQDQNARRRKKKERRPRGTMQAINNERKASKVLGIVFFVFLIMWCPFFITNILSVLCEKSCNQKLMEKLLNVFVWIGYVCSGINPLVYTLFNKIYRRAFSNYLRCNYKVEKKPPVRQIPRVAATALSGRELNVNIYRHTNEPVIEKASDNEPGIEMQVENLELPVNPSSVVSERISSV

hSERT [11] = molecular target: T3, hSERT; assay: [125I]RTI-55 binding, HEK-hSERT cells
hSERT [12] = molecular target: T3, hSERT; assay: [3H]Serotonin release, HEK-hSERT cells; format: cell-based
hDAT [13] = molecular target: T2, hDAT; assay: [3H]Dopamine uptake, HEK-hDAT cells; format: cell-based
human 5-HT2C receptor [14] = molecular target: T4, human 5-HT2C receptor; assay: cell-based
human 5-HT1A receptor [15] = molecular target: T5, human 5-HT1A receptor (Homo sapiens, UniProt P08908); assay: [35S]GTPγS binding functional assay, HEK-5-HT1A; format: biochemical
T5 sequence (P08908 1-422): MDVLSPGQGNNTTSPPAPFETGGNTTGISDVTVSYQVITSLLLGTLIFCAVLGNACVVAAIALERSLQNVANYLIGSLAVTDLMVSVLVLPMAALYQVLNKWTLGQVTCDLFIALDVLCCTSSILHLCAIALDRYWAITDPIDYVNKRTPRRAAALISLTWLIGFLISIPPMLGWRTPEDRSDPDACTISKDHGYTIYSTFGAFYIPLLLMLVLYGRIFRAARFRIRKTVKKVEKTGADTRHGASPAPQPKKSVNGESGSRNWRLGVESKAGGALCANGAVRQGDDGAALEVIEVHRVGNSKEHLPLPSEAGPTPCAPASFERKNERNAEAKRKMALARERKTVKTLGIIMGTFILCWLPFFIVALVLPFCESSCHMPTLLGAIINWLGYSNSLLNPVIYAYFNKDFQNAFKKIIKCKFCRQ

hNET [16] = molecular target: T6, hNET (Homo sapiens, UniProt P23975); assay: cell-based
T6 sequence (P23975 whole entry): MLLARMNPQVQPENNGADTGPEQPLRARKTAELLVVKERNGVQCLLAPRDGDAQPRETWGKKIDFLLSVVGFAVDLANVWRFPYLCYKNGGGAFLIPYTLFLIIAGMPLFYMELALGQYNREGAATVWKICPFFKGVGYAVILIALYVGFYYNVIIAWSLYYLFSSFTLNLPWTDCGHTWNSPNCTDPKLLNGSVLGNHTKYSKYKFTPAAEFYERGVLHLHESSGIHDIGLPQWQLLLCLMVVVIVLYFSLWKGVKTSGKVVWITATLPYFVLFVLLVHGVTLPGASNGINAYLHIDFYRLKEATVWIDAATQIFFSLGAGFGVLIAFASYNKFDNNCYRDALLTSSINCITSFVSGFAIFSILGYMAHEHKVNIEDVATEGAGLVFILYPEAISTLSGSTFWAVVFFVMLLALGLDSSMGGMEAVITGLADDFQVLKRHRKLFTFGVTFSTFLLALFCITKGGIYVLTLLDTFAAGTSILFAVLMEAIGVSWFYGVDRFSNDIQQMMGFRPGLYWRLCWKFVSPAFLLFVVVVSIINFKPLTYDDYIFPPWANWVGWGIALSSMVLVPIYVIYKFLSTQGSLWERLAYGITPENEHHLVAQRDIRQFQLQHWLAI

hNET [17] = molecular target: T6, hNET; assay: cell-based; remark: listed apart in the source
human 5-HT1A receptor [18] = molecular target: T5, human 5-HT1A receptor; assay: [3H]8-OH-DPAT binding, HEK-5-HT1A
human 5-HT2A receptor [19] = molecular target: T1, human 5-HT2A receptor; assay: [125I]DOI binding, HEK-5-HT2A cells
hNET [20] = molecular target: T6, hNET; assay: biochemical; format: binding
[21] = tested on: rats trained to discriminate DMT (5 mg/kg) from saline; format: in vivo, rat

## COc1cc(Br)c(OC)c2c1[C@H](CN)C2 [((R)-4-bromo-3,6-dimethoxybenzocyclobuten-1-yl)methyl-amine)]
5-HT2A
  Fold more potent at stimulating inositol phosphate turnover than AA release: 65 fold

## COc1cc(CC(C)N)c(OC)cc1Cl (stereo not shown) [DOC, 2,5-Dimethoxy-4-chloroamphetamine]
Human 5-HT2A receptor [1]
  EC50: 0.00291 ± 0.00066 µM
Human 5-HT2A receptor [1]; read-out: 5-HT2A Function [3H]AA release % maximal effect
  Emax: 81 ± 16%
hDAT [2]
  [3H]Dopamine release % METH maximal effect: ND Minimal
[3]; 15 min pretreatment
  Rate of responding at dose of maximum DAR: 0.402±0.049 resp/s
  Maximum %DAR (drug-appropriate responding): 81±16 %
[3]; 60 min pretreatment
  Rate of responding at dose of maximum DAR: 0.410±0.139 resp/s
  Maximum %DAR (drug-appropriate responding): 95±3 %
[4]; 15 min pretreatment
  Rate of responding at dose of maximum DAR: 0.708±0.072 resp/s
  Maximum %DAR (drug-appropriate responding): 83±17 %
[4]; 60 min pretreatment
  Rate of responding at dose of maximum DAR: 0.493±0.058 resp/s
  Maximum %DAR (drug-appropriate responding): 87±13 %
Human 5-HT2A receptor [5]
  EC50: 0.0105 ± 0.0026 µM
Human 5-HT2A receptor [5]; read-out: 5-HT2A Function IP-1 formation % maximal effect
  Emax: 102 ± 4.2%
Male Swiss–Webster mice
  Duration of depressant effects: 30 to 80 min
  Onset of depressant effects (within, after injection): ≤ 10 min
hSERT [6]
  IC50: > 8.6 µM
[7]; 15 min pretreatment
  Rate of responding at dose of maximum DAR: 0.876±0.330 resp/s
[7]; 60 min pretreatment
  Rate of responding at dose of maximum DAR: 0.276±0.098 resp/s
[8]; 15 min pretreatment
  Rate of responding at dose of maximum DAR: 0.449±0.104 resp/s
[8]; 60 min pretreatment
  Rate of responding at dose of maximum DAR: 0.356±0.141 resp/s
[8]; i.p., 60 min pretreatment, at dose of maximum DAR
  Maximum %DAR (drug-appropriate responding): 60% and 60±24 ^2%
hDAT [9]
  Ki: > 10 µM
Human 5-HT2C receptor [10]
  Ki: 0.00357 ± 0.00056 µM
hSERT [11]
  Ki: > 10 µM
hSERT [12]
  [3H]Serotonin release % PCA maximal effect: ND Minimal
hDAT [13]
  IC50: > 10 µM
Human 5-HT2C receptor [14]
  EC50: 0.0146 ± 0.003 µM
Human 5-HT2C receptor [14]; read-out: 5-HT2C Function IP-formation % maximal effect
  Emax: 97 ± 19%
Human 5-HT1A receptor [15]
  EC50: > 10 µM
Human 5-HT1A receptor [15]; read-out: 5-HT1A Function [35S]GTPγS Binding % maximal effect
  Emax: < 10%
hNET [16]
  [3H]NE release % METH maximal effect: ND Minimal
hNET [17]
  IC50: > 8.4 µM
Human 5-HT1A receptor [18]
  Ki: > 9.2 µM
Human 5-HT2A receptor [19]
  Ki: 0.004 ± 0.00045 µM
hNET [20]
  Ki: > 7.7 µM
[21]; DMT-trained rats, 15 min pretreatment
  Rate of responding at dose of maximum DAR: 0.354±0.125 resp/s
[21]; DMT-trained rats, 60 min pretreatment
  Rate of responding at dose of maximum DAR: 0.777±0.095 resp/s
[21]; DMT-trained rats, i.p., 60 min pretreatment, at dose of maximum DAR
  Maximum %DAR (drug-appropriate responding): 83±17 %
[21]; rat, in vivo
  Dose(s) that decreased response rate: ≥ 1 mg/kg
